One series has as its system S-CTX (bone resorption). In words: Serum C-telopeptide fragments of collagen type I degradation (S-CTX) by serum CrossLaps ELISA, marker of bone resorption, after administration to human subjects. Type of series: in vivo. The procedure:
In these Examples Haematology and serum chemistry including glucose were measured using an auto analyser (Vitros). Serum FSH was measured by IRMA (Coat-A-Count®, DPC, Los Angeles, Calif.). Serum C-telopeptide fragments of collagen type I degradation (S-CTX) were measured by ELISA, serum CrossLaps™ assay (Osteometer BioTech A/S—Denmark). Serum osteocalcin was determined by ELISA, an assay which determines the N-terminal mid segment of the molecule. Serum insulin and c-peptide were both assessed by RIA (Coat-A-Count® for insulin and Double Antibody C-peptide for c-peptide both DPC, Los Angeles, Calif.).
12 healthy women and men between 30-45, respectively 30-60, were included in a randomised, controlled cross over study comparing the effects of oral fructose on GLP-1, on GIP and on bone turnover. The individuals had not suffered diseases suspected to affect bone turnover such as cancer, rheumatoid arthritis or diseases compromising absorption from the gut or excretion/re-absorption from the kidney nor had they a history of serious diseases, which might influence the conduct of the study. A general laboratory screening including haematology and serum chemistry gave no indication of specific organ dysfunction. […]

A short description of series [1]: Level of GLP-2 in blood after subcutaneous GLP-2 injection. It counts as in vivo. Particulars: subcutaneous bolus injection of 400 μg synthetic human GLP-2; healthy women and men. From the text:
6 healthy women and 3 healthy men between 24-53 were included in a study comparing the effect of a GLP-2 injection on GLP-2intact and on bone turnover.
The description of the methodology of measurement of GLP-2intact and total GLP-2 and the description of the test persons was as described in detail in Hartmann, B. et al., J Clin Endocrinol Metab 2000; 85 (8):2884-2888.
Blood samples were drawn at regular intervals before, during, and after the injection.
The test persons received a subcutaneous bolus injection of 400 μg synthetic human GLP-2.

The next series relates to GLP-1. In words: Level of GLP-1 in blood after oral nutrient intake. The following applies: after 2 hours; oral 75 g fructose; healthy women and men. Type of series: in vivo, human. From the text:
(§1) 12 healthy women and men between 30-45, respectively 30-60, were included in a randomised, controlled cross over study comparing the effects of oral fructose on GLP-1, on GIP and on bone turnover. The individuals had not suffered diseases suspected to affect bone turnover such as cancer, rheumatoid arthritis or diseases compromising absorption from the gut or excretion/re-absorption from the kidney nor had they a history of serious diseases, which might influence the conduct of the study. A general laboratory screening including haematology and serum chemistry gave no indication of specific organ dysfunction. The individuals were not under influence of bone active medication, thus more than 3 months had passed since previous treatment with calcium, vitamin D, oestrogen or progestin in any administration form and the individuals had never been treated with bisphosphonates or fluoride.
After fasting from 10 p.m. the evening prior to an experiment, blood samples were collected between 7:30 a.m. and 8:30 a.m. Immediately thereafter oral fructose were initiated. […]
The normal mixed meal consisted of rye bread, toast, butter, cheese, jam, yoghurt, banana, and orange juice (total weight 755 g), with an energy content of 3.92 MJ and a protein:carbohydrate:fat energy ratio of 10%:52%:37% evaluated from food tables.

The next series relates to GIP. In words: Level of GIP in blood after oral nutrient intake. Type of series: in vivo, human. The following applies: oral 75 g fructose; healthy women and men; result in words.
Text: as §1
After fasting from 10 p.m. the evening prior to an experiment, blood samples were collected between 7:30 a.m. and 8:30 a.m. Immediately thereafter oral fructose were initiated. At precisely 1, 2, 3, 6 and 9 hours after the first blood sample, blood samples were collected. A washout period of 2 weeks was instituted between each experiment.
Oral fructose consisted of 75 g fructose dissolved in 300 ml water with juice of a half lemon added. […]

On to “GLP-2: synthetic human GLP-2, 33 amino acid peptide fragment of proglucagon (126-158)”, for which, in the series on S-CTX (bone resorption) (after 3 hours, subcutaneous bolus injection of 400 μg, 6 healthy women and 3 healthy men), the “reduction in S-CTX” value is recorded as 33%. Besides, the “time to peak level of GLP-2 after the injection” value in series [1] worked out at 1 h.
Regarding `O=C(CO)[C@@H](O)[C@H](O)[C@H](O)CO` [fructose], the “reduction in S-CTX” value in the series on S-CTX (bone resorption) (after 2 hours, oral intake after overnight fast, 12 healthy women and men) is reported as 36%. The “occurrence (level) of GLP-1 compared to the baseline of 100% at To” value in the series with GLP-1 worked out at 220%. Also, in the series on GIP, the “level of GIP” value was “almost maintained at the baseline”.
